The values that follow come from patent publication US20250179000A1 (Sanford Burnham Prebys Medical Discovery Institute, priority 2021, published 2025).

Assay [1] has as its system spinal cord GDNF levels. The settings on record: cited from earlier work.
In assay [2] the test system is nigro-striatal damage induced by 1-methyl-4-phenyl-1,2,3,6-tetrahydropyridine in mice. The settings on record: acute or repeated 0.25 or 3 mg/kg i.p.; tyrosine hydroxylase-positive neuron count; cited from earlier work.
Assay [3] has as its system reserpine-treated rat. Conditions: cited from earlier work.
Assay [4] has as its system 6-OHDA lesioned nigrostriatal tract. The settings on record: cited from earlier work.
Assay [5] relates to cultured spinal cord astrocytes. The settings on record: wild-type and mGlu2 knockout mice, not mGlu3 knockout; cited from earlier work.
The subject of assay [6] is SMI-32+ motor neurons. The settings on record: abrogated by anti-GDNF antibodies; cited from earlier work.
Assay [7] concerns GDNF mRNA and protein levels in the mouse brain. Conditions: cited from earlier work.
For assay [8], the system named is SOD1G93A mice. Conditions: cited from earlier work.
Assay [9] concerns R6/2 mice. Conditions: cited from earlier work.
The subject of assay [10] is cocaine craving. The settings on record: preliminary results in humans; cited from earlier work.
Assay [11] deals with cocaine-seeking in rats. The settings on record: systemic injections; cited from earlier work.
Assay [12] addresses Human mGlu2 (Homo sapiens, UniProt Q14416). As to the kind of experiment: mGlu receptor in vitro assay, human mGlu2. The format is cell-based.
Assay [13] deals with T1, Rat mGlu2 (Rattus norvegicus, UniProt P31421).
T1 construct: expressed in transfected cells; host or cells: HEK-293 co-expressing GIRK channels
As to the kind of experiment: mGlu receptor in vitro assay, thallium flux through GIRK channels, rat mGlu2. The format is cell-based. The settings on record: PAM potency with EC20 glutamate. The method, boiled down:
(§1)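 HEK-293 cells co-expressing rat mGlu2 or mGlu3 and GIRK, dye-loaded with FluoZin2-AM, compound added about 2.5 min before thallium buffer with EC20 glutamate; potency from the 5-15 s fluorescence slope, 10-point 4-parameter fit. Calcium assay at mGlu3 used TREx293 mGlu3 Gα15 cells induced with tetracycline 20 ng/mL for 20 h.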

The target of assay [14] is Human mGlu3 (Homo sapiens, UniProt Q14832). As to the kind of experiment: mGlu receptor in vitro assay, human mGlu3. The assay is classed as cell-based.
Assay [15] deals with T2, Rat mGlu3 (Rattus norvegicus, UniProt P31422).
T2 construct: expressed in transfected cells; host or cells: HEK-293 co-expressing GIRK channels
As to the kind of experiment: mGlu receptor in vitro assay (thallium flux through GIRK channels / calcium assay), rat mGlu3. Conditions: PAM potency with EC20 glutamate. The format is cell-based. The method, boiled down: as §1

pEC50: −log10 of the molar value.

Human mGlu2, sequence (Q14416 19-872): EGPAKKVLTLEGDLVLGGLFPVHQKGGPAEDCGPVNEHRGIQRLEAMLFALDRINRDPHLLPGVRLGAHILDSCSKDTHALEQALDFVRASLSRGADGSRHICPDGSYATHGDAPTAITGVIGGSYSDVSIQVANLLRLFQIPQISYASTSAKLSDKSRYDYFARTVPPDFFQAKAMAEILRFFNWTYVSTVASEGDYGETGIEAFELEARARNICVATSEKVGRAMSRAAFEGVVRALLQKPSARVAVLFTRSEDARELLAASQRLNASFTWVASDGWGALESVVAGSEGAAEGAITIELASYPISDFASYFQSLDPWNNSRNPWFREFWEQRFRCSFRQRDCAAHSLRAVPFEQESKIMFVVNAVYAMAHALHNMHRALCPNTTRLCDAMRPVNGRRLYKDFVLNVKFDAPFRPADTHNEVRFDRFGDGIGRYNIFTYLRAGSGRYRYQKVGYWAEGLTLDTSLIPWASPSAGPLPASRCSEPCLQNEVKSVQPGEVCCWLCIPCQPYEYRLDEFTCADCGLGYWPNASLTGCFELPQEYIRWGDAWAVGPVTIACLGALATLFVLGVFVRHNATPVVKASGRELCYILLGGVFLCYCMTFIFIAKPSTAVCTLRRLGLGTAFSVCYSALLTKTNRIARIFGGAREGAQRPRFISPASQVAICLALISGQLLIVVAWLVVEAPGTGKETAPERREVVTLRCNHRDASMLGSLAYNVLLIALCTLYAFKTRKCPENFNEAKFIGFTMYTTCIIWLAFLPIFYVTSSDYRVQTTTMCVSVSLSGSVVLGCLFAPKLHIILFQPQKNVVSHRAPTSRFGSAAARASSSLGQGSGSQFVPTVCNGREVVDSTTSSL
T1 sequence (P31421 19-872): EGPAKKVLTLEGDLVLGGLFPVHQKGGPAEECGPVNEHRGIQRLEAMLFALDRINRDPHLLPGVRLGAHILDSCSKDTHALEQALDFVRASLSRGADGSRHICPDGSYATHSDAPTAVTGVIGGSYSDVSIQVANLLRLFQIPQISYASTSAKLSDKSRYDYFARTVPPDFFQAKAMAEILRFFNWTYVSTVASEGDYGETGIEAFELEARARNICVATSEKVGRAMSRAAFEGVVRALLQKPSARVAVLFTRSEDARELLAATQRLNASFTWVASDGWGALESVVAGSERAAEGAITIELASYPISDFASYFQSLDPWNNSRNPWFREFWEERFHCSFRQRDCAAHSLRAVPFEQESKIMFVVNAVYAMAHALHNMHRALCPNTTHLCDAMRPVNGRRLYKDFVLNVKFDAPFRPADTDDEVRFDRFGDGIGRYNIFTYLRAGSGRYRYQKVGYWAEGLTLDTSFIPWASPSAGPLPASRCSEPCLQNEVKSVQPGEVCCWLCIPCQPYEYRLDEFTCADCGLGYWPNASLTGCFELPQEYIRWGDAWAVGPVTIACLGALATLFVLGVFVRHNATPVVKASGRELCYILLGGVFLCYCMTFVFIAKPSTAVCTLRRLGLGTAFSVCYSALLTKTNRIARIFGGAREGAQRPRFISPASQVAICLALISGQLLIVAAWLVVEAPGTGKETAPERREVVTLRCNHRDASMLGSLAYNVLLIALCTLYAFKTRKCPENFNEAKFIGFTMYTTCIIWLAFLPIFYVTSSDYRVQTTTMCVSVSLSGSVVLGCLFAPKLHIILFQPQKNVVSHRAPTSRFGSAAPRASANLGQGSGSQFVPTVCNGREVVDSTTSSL
T2 sequence (P31422 23-879): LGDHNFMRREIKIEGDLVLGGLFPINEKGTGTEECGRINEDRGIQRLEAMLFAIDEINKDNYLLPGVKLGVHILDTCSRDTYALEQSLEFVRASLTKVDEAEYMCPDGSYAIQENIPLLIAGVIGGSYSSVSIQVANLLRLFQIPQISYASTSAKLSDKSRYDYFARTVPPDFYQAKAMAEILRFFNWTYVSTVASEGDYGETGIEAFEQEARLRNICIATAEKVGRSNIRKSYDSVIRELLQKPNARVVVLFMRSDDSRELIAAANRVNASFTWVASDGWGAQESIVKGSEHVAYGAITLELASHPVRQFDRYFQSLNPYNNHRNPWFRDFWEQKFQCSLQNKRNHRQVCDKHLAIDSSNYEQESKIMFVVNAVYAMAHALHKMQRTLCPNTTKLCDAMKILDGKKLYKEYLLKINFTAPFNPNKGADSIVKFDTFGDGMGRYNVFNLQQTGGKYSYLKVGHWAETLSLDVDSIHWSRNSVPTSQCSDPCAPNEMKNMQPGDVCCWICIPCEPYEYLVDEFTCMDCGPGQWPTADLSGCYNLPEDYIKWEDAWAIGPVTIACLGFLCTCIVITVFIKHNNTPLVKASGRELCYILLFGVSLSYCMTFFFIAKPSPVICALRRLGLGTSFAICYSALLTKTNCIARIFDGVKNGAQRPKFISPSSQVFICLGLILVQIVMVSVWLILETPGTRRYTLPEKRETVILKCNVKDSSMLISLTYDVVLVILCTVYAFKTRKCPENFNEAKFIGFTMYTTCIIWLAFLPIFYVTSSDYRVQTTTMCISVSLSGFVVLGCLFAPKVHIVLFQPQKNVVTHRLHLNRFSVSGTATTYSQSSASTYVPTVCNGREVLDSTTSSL
Human mGlu3, sequence (Q14832 23-879): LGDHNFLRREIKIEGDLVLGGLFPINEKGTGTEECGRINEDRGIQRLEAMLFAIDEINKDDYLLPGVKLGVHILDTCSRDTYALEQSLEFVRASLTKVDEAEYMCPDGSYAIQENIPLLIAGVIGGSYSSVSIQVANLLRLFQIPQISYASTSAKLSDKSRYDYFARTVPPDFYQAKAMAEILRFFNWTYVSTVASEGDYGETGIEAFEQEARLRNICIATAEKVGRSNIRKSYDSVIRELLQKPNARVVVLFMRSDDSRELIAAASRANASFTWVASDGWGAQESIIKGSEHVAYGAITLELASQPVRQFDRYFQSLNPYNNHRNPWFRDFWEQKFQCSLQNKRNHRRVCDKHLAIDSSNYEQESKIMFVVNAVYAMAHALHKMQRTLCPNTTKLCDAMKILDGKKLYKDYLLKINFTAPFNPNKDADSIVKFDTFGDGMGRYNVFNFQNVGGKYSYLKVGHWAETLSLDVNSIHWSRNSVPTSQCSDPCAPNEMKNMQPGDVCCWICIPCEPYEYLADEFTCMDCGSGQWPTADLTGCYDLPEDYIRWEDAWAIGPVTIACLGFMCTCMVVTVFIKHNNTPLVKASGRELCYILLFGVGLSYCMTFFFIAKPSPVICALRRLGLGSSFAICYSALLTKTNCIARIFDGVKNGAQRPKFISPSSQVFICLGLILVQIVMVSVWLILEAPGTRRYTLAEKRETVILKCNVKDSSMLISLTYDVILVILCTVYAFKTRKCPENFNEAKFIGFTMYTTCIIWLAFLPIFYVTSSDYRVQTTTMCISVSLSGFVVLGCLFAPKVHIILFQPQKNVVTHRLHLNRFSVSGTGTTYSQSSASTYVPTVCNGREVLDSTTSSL

With `N[C@@]1(C(=O)O)CO[C@H]2[C@H](C(=O)O)[C@H]21` [LY379268], the “tolerance to GDNF-enhancing effect” value in assay [1] (28 days s.c. osmotic minipumps, 0.5-5 mg/day) is reported as “No tolerance developed”. Moreover, the “spinal cord GDNF levels” value in assay [1] (acute 0.5, 1 or 5 mg/kg i.p., wild-type and mGlu2 knockout mice, not mGlu3 knockout) is given as “enhanced spinal cord GDNF levels”. Moreover, the “expression of glutamate transporter GLT-1 in spinal cord” value in assay [1] (continuous infusion) is given as “enhanced the expression”. For the same compound, in [2], the “protection against nigro-striatal damage” value is listed as “highly protective”. The locomotor activity entry in [3] (intracerebroventricular 1, 5, 10, 20 nmol, reserpine 5 mg/kg ip) is “dose-dependent increase in locomotor activity”. Besides, in [3] (systemic 0.1, 1, 10 mg/kg ip), the reserpine-induced akinesia result is recorded as “did not reverse reserpine-induced akinesia”. Further, the “protection against nigral infusion of 6-OHDA” value in [4] (10 mg/kg/day ip, 7 days) is on record as “some protection”. In addition, in [4] (10 mg/kg/day ip, 21 days, striatum), the “protection against striatal infusion of 6-OHDA” value is “significant protection in the striatum”. Moreover, in assay [4] (systemic 0.1, 1, 10 mg/kg ip, 1 month after unilateral 6-OHDA lesion), the rotational behaviour result is reported as “failed to effect rotational behaviour”. In addition, in [5], the “GDNF levels in astrocytes” value is given as “enhanced GDNF levels”. In addition, in assay [6], the “protection of motor neurons against excitotoxic death” value was “protected”. Further, the “GDNF mRNA and protein levels” value in assay [7] (0.25-3 mg/kg i.p.) is recorded as “increased”. In addition, the “time of peak GDNF mRNA levels” value in assay [7] (after injection) is on record as 3 h. The neurological disability result in assay [8] (continuous treatment 1 or 5 mg/kg/day) is “beneficial effect on neurological disability”. The “spinal cord motor neurons (SMI-32+ cell count)” value in [8] (day 40 of treatment) was “rescued spinal cordmotor neurons”. Moreover, the striatal neuron loss result in assay [9] (20 mg/kg daily s.c., at 10 weeks) is “rescue of a 15-20% striatal neuron loss”. Moreover, in [9] (20 mg/kg daily s.c., distance traveled, speed, pauses, straight-line locomotion), the motor function result is on record as “normalization of motor function”. Moreover, the “phenotype in R6/2 mice” value in assay [9] (20 mg/kg daily subcutaneous, beginning at 4 weeks) is listed as “dramatically improves the phenotype”.

As for `CC(=O)N[C@@H](CS)C(=O)O` [N-acetylcysteine], in assay [10], the cocaine craving result is on record as “attenuated cocaine craving”. For the same compound, the reinstatement of cocaine-seeking result in assay [11] is given as “attenuated”.

As to `COc1ccc(C(=O)O)cc1OCCCCOc1ccc(C(=O)CC(C)(C)C)c(O)c1` [compound 132, 3-(4-(4-(3,3-Dimethylbutanoyl)-3-hydroxyphenoxy)butoxy)-4-methoxybenzoic acid], the pEC50 – broadly, the EC50 on a negative log10 scale, so that one unit is a factor of ten – in [12] was 6.89; in [13] it was 6.39; in [14] it was 6.94; in assay [15], 6.51.

Take `COc1ccc(C(=O)O)cc1OCCCCOc1ccc(C(=O)c2ccccc2)c(O)c1C` [compound 59, 3-(4-(4-Benzoyl-3-hydroxy-2-methylphenoxy)butoxy)-4-methoxybenzoic acid]: the pEC50 is 6.49 in [12], 6.74 in assay [13], 6.39 in assay [14] and 6.65 in assay [15].
